Measurements: ChEMBL document CHEMBL1155237, “Selective inhibitors of the mutant B-Raf pathway: discovery of a potent and orally bioavailable aminoisoquinoline” (J Med Chem, 2009)

Tests used:
[1] = target: Atypical kinase COQ8B, mitochondrial (Homo sapiens) (UniProt Q96D53); assay: Inhibition of ADCK4 assessed as enzyme activity at 1 uM relative to untreated control; design: scale not given: the % may be the effect or the level left
[2] = target: Activin receptor type-1-like (Homo sapiens) (UniProt P37023); assay: Inhibition of ACVRL1 assessed as enzyme activity at 1 uM relative to untreated control; design: scale not given: the % may be the effect or the level left
[3] = system: Epidermal growth factor receptor (Homo sapiens), P00533 [UNDEFINED MUTATION]; assay: Inhibition of EGFR L747-E749del A750P assessed as enzyme activity at 1 uM relative to untreated control; assay type: protein assay; design: scale not given: the % may be the effect or the level left
[4] = target: Serine/threonine-protein kinase RIO1 (Homo sapiens) (UniProt Q9BRS2); assay: Inhibition of RIOK1 assessed as enzyme activity at 1 uM relative to untreated control; design: scale not given: the % may be the effect or the level left
[5] = target: RAF proto-oncogene serine/threonine-protein kinase (Homo sapiens) (UniProt P04049); assay: Inhibition of RAF1 assessed as enzyme activity at 1 uM relative to untreated control; design: scale not given: the % may be the effect or the level left
[6] = target: Myosin light chain kinase 2, skeletal/cardiac muscle (Homo sapiens) (UniProt Q9H1R3); assay: Inhibition of MYLK2 assessed as enzyme activity at 1 uM relative to untreated control; design: scale not given: the % may be the effect or the level left
[7] = target: cGMP-dependent protein kinase 1 (Homo sapiens) (UniProt Q13976); assay: Inhibition of PRKG1 assessed as enzyme activity at 1 uM relative to untreated control; design: scale not given: the % may be the effect or the level left
[8] = target: Serine/threonine-protein kinase Nek1 (Homo sapiens) (UniProt Q96PY6); assay: Inhibition of NEK1 assessed as enzyme activity at 1 uM relative to untreated control; design: scale not given: the % may be the effect or the level left
[9] = target: Testis-specific serine/threonine-protein kinase 1 (Homo sapiens) (UniProt Q9BXA7); assay: Inhibition of TSSK1 assessed as enzyme activity at 1 uM relative to untreated control; design: scale not given: the % may be the effect or the level left
[10] = system: Mast/stem cell growth factor receptor Kit (Homo sapiens), P10721 [V559D]; assay: Inhibition of KIT V559D mutant assessed as enzyme activity at 1 uM relative to untreated control; design: scale not given: the % may be the effect or the level left
[11] = target: Mitogen-activated protein kinase 10 (Homo sapiens) (UniProt P53779); assay: Inhibition of JNK3 assessed as enzyme activity at 1 uM relative to untreated control; design: scale not given: the % may be the effect or the level left
[12] = target: Serine/threonine-protein kinase pim-1 (Homo sapiens) (UniProt P11309); assay: Inhibition of PIM1 assessed as enzyme activity at 1 uM relative to untreated control; design: scale not given: the % may be the effect or the level left
[13] = target: Ribosomal protein S6 kinase alpha-4 (Homo sapiens) (UniProt O75676); assay: Inhibition of RPS6KA4 kinase domain 2 assessed as enzyme activity at 1 uM relative to untreated control; design: scale not given: the % may be the effect or the level left
[14] = target: Serine/threonine-protein kinase 26 (Homo sapiens) (UniProt Q9P289); assay: Inhibition of MST4 assessed as enzyme activity at 1 uM relative to untreated control; design: scale not given: the % may be the effect or the level left
[15] = target: Serine/threonine-protein kinase 16 (Homo sapiens) (UniProt O75716); assay: Inhibition of STK16 assessed as enzyme activity at 1 uM relative to untreated control; design: scale not given: the % may be the effect or the level left
[16] = target: Serine/threonine-protein kinase PLK4 (Homo sapiens) (UniProt O00444); assay: Inhibition of PLK4 assessed as enzyme activity at 1 uM relative to untreated control; design: scale not given: the % may be the effect or the level left
[17] = target: Serine/threonine-protein kinase ULK3 (Homo sapiens) (UniProt Q6PHR2); assay: Inhibition of ULK3 assessed as enzyme activity at 1 uM relative to untreated control; design: scale not given: the % may be the effect or the level left
[18] = target: Cyclin-dependent kinase 18 (Homo sapiens) (UniProt Q07002); assay: Inhibition of PCTK3 assessed as enzyme activity at 1 uM relative to untreated control; design: scale not given: the % may be the effect or the level left
[19] = target: Calcium/calmodulin-dependent protein kinase type II subunit beta (Homo sapiens) (UniProt Q13554); assay: Inhibition of CAMK2B assessed as enzyme activity at 1 uM relative to untreated control; design: scale not given: the % may be the effect or the level left
[20] = target: Cyclin-dependent kinase-like 2 (Homo sapiens) (UniProt Q92772); assay: Inhibition of CDKL2 assessed as enzyme activity at 1 uM relative to untreated control; design: scale not given: the % may be the effect or the level left
[21] = Inhibition of FGFR3 G697C mutant assessed as enzyme activity at 1 uM relative to untreated control; design: scale not given: the % may be the effect or the level left
[22] = target: Serine/threonine-protein kinase Nek5 (Homo sapiens) (UniProt Q6P3R8); assay: Inhibition of NEK5 assessed as enzyme activity at 1 uM relative to untreated control; design: scale not given: the % may be the effect or the level left
[23] = target: Serine/threonine-protein kinase 32C (Homo sapiens) (UniProt Q86UX6); assay: Inhibition of YANK3 assessed as enzyme activity at 1 uM relative to untreated control; design: scale not given: the % may be the effect or the level left
[24] = target: Mitogen-activated protein kinase 8 (Homo sapiens) (UniProt P45983); assay: Inhibition of JNK1 assessed as enzyme activity at 1 uM relative to untreated control; design: scale not given: the % may be the effect or the level left
[25] = target: Proto-oncogene tyrosine-protein kinase ROS (Homo sapiens) (UniProt P08922); assay: Inhibition of ROS1 assessed as enzyme activity at 1 uM relative to untreated control; design: scale not given: the % may be the effect or the level left
[26] = target: Ephrin type-A receptor 7 (Homo sapiens) (UniProt Q15375); assay: Inhibition of EPHA7 assessed as enzyme activity at 1 uM relative to untreated control; design: scale not given: the % may be the effect or the level left
[27] = target: Platelet-derived growth factor receptor beta (Homo sapiens) (UniProt P09619); assay: Inhibition of PDGFRB assessed as enzyme activity at 1 uM relative to untreated control; design: scale not given: the % may be the effect or the level left
[28] = system: Tyrosine-protein kinase ABL1 (Homo sapiens), P00519 [M351T]; assay: Inhibition of ABL1 M351T mutant assessed as enzyme activity at 1 uM relative to untreated control; design: scale not given: the % may be the effect or the level left
[29] = target: SRSF protein kinase 1 (Homo sapiens) (UniProt Q96SB4); assay: Inhibition of SRPK1 assessed as enzyme activity at 1 uM relative to untreated control; design: scale not given: the % may be the effect or the level left
[30] = target: Serine/threonine-protein kinase LATS2 (Homo sapiens) (UniProt Q9NRM7); assay: Inhibition of LATS2 assessed as enzyme activity at 1 uM relative to untreated control; design: scale not given: the % may be the effect or the level left
[31] = target: Protein kinase C theta type (Homo sapiens) (UniProt Q04759); assay: Inhibition of PRKCQ assessed as enzyme activity at 1 uM relative to untreated control; design: scale not given: the % may be the effect or the level left
[32] = target: Phosphatidylinositol 4,5-bisphosphate 3-kinase catalytic subunit alpha isoform (Homo sapiens) (UniProt P42336); assay: Inhibition of PIK3CA assessed as enzyme activity at 1 uM relative to untreated control; design: scale not given: the % may be the effect or the level left
[33] = target: Tyrosine-protein kinase Blk (Homo sapiens) (UniProt P51451); assay: Inhibition of BLK assessed as enzyme activity at 1 uM relative to untreated control; design: scale not given: the % may be the effect or the level left
[34] = target: Non-receptor tyrosine-protein kinase TYK2 (Homo sapiens) (UniProt P29597); assay: Inhibition of TYK2 kinase domain 1 assessed as enzyme activity at 1 uM relative to untreated control; design: scale not given: the % may be the effect or the level left
[35] = Clearance in CD1 mouse; assay type: ADME, organism-based; conditions: in vivo
[36] = target: Serine/threonine-protein kinase pim-3 (Homo sapiens) (UniProt Q86V86); assay: Inhibition of PIM3 assessed as enzyme activity at 1 uM relative to untreated control; design: scale not given: the % may be the effect or the level left
[37] = target: Mast/stem cell growth factor receptor Kit (Homo sapiens) (UniProt P10721); assay: Inhibition of KIT assessed as enzyme activity at 1 uM relative to untreated control; design: scale not given: the % may be the effect or the level left
[38] = target: Death-associated protein kinase 2 (Homo sapiens) (UniProt Q9UIK4); assay: Inhibition of DAPK2 assessed as enzyme activity at 1 uM relative to untreated control; design: scale not given: the % may be the effect or the level left

Sequence of Serine/threonine-protein kinase 32C (Homo sapiens) (Q86UX6 whole entry): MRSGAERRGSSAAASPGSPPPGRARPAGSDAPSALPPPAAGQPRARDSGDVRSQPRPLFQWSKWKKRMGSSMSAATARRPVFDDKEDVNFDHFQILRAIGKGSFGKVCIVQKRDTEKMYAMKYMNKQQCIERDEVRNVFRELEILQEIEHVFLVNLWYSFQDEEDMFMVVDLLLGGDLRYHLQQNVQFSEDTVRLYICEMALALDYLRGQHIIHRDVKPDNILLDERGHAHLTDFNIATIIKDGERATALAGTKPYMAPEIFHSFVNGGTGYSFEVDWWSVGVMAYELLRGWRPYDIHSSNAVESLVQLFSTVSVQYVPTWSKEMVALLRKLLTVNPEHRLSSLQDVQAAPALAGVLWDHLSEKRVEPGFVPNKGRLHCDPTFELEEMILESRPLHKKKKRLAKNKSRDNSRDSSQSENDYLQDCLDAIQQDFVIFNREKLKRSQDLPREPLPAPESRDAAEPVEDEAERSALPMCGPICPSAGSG
Sequence of RAF proto-oncogene serine/threonine-protein kinase (Homo sapiens) (P04049 whole entry): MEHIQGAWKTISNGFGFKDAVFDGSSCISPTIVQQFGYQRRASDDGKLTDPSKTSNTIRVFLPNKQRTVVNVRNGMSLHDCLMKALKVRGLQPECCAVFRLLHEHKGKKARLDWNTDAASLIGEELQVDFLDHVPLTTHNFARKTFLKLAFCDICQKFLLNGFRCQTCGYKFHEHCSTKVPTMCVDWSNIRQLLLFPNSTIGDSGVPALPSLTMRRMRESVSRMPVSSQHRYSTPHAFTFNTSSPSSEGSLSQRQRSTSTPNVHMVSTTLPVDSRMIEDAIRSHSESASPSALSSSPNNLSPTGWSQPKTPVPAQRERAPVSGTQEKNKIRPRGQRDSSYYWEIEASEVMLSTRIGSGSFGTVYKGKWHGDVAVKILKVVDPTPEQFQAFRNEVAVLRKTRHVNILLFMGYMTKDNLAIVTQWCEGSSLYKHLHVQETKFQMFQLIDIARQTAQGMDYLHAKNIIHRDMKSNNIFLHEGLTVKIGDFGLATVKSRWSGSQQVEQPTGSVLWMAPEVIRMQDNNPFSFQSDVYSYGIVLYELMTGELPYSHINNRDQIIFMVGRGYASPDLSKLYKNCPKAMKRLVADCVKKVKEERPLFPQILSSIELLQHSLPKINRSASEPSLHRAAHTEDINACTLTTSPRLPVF
Sequence of Serine/threonine-protein kinase Nek1 (Homo sapiens) (Q96PY6 whole entry): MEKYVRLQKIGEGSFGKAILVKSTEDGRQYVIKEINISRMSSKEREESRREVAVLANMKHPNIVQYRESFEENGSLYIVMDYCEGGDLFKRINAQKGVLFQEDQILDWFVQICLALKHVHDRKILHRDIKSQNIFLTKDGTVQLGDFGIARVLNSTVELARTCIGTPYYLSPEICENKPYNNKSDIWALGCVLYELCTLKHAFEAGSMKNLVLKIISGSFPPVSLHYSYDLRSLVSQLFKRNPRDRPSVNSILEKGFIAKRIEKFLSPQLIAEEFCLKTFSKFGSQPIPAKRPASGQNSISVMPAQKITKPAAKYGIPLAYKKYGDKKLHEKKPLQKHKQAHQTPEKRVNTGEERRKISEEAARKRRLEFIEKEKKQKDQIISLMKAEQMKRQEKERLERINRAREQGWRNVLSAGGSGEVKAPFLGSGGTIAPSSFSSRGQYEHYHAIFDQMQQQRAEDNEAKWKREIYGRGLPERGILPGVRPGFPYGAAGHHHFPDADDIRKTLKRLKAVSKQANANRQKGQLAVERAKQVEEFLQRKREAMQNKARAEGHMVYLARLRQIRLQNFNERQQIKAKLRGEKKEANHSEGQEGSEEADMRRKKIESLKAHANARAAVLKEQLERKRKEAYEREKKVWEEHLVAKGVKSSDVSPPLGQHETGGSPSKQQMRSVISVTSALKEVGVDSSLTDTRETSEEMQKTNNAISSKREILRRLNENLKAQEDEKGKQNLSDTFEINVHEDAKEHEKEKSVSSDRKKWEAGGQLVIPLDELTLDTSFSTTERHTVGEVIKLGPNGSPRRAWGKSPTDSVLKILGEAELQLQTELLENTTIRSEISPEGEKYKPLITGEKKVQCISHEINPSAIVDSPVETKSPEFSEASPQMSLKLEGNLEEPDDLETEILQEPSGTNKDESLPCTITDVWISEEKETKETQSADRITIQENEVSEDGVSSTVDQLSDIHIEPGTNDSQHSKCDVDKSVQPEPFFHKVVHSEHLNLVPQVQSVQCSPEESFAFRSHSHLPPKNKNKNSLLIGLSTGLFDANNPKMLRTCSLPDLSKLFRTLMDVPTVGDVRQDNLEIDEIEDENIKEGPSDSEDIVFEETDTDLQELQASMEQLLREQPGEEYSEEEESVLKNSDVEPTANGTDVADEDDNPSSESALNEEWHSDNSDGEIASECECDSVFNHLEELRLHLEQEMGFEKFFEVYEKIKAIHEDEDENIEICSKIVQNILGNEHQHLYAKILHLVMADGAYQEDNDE
Sequence of Proto-oncogene tyrosine-protein kinase ROS (Homo sapiens) (P08922 whole entry): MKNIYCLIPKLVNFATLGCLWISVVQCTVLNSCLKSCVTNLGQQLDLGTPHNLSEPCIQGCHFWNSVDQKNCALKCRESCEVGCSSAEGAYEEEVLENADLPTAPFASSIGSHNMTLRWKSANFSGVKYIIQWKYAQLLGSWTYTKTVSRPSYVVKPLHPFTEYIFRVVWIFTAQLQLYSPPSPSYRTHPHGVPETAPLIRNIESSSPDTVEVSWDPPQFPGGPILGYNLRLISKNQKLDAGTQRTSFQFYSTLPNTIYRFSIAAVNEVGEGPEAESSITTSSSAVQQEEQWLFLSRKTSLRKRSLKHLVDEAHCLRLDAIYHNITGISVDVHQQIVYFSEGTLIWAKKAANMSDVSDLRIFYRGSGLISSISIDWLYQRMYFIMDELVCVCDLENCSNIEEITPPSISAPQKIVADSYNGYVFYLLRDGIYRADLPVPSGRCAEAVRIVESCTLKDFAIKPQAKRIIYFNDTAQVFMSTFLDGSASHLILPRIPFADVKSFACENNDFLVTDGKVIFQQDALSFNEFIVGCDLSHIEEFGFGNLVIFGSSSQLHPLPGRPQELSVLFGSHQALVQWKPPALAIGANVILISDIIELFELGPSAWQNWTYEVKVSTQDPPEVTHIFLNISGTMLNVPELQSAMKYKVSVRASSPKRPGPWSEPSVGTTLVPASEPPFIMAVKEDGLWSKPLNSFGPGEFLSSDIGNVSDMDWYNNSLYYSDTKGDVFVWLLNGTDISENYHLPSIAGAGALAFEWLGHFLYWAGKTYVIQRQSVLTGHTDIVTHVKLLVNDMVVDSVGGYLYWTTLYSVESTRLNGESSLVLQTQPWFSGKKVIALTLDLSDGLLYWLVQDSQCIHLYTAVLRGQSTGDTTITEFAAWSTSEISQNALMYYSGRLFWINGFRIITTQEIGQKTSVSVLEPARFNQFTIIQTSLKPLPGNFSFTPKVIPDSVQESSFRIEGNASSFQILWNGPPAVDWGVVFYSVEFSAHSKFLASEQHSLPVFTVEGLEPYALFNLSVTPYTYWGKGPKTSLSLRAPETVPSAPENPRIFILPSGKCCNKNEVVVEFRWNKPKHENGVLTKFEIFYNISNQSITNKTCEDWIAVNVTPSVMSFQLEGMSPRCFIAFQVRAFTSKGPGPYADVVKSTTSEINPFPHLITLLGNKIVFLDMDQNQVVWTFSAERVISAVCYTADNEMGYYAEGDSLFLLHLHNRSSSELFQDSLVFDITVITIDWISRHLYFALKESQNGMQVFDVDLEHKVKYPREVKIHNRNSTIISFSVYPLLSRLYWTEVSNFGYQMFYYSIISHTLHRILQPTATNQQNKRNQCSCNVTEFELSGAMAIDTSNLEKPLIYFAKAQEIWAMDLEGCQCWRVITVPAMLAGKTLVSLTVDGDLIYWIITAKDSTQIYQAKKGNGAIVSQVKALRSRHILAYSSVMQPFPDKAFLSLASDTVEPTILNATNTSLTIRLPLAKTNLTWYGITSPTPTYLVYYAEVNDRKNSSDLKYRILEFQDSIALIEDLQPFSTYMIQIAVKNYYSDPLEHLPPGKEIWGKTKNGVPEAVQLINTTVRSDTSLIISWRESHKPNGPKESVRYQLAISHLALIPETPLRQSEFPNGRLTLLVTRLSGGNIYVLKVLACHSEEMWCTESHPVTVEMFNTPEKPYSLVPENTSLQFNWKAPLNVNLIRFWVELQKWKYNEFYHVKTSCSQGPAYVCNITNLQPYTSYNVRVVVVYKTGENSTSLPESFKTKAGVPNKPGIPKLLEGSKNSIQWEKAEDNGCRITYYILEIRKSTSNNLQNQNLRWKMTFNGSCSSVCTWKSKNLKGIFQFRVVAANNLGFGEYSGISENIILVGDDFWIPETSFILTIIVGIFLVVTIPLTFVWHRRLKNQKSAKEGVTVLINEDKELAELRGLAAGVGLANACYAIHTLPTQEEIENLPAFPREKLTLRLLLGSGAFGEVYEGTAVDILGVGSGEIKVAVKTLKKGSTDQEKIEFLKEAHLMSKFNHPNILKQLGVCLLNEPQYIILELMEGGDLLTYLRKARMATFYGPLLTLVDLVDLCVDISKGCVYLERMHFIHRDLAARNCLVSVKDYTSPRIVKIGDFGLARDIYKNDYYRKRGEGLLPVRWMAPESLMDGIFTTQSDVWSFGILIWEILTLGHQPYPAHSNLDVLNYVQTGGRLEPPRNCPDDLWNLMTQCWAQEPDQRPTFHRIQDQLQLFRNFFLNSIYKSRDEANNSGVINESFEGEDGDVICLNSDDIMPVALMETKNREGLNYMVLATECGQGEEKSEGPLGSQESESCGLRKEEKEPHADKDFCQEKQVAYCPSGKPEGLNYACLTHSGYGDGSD

Cc1ccc2c(Nc3ccc(Cl)cc3)nccc2c1Nc1ncccc1-c1ncnc2[nH]cnc12.Cl.Cl.Cl
Activity [1]: 77% | Activity [2]: 92% | Activity [3]: 89% | Activity [4]: 92% | Activity [5]: 0% | Activity [6]: 100% | Activity [7]: 93% | Activity [8]: 100% | Activity [9]: 71% | Activity [10]: 36% | Activity [11]: 86% | Activity [12]: 93% | Activity [13]: 89% | Activity [14]: 100% | Activity [15]: 100% | Activity [16]: 90% | Activity [17]: 100% | Activity [18]: 95% | Activity [19]: 100% | Activity [20]: 100% | Activity [21]: 100% | Activity [22]: 98% | Activity [23]: 84% | Activity [24]: 2.7% | Activity [25]: 72% | Activity [26]: 4.7% | Activity [27]: 78% | Activity [28]: 45% | Activity [29]: 100% | Activity [30]: 85% | Activity [31]: 100% | Activity [32]: 100% | Activity [33]: 75% | Activity [34]: 96% | clearance [35]: 3.17 mL/min | Activity [36]: 100% | Activity [37]: 28% | Activity [38]: 100%
